Assay results taken from US7112698B2, “4-(c2-6alkoxy)-substituted chalcones as therapeutic agents” (Spear Therapeutics Limited, priority 2001, dated 2006).
Like-named read-outs stand apart in the source and are kept apart here.

Legend:
[1] = system: MCF-7 cells; assay: MCF-7 cell line (non-induced) cytotoxicity assay, MTT; assay type: cell-based; conditions: Homo sapiens, MCF7
Description: (§1) CYP1A1 and CYP1B1 enzyme activity is induced by TCDD (tetrachlorodibenzodioxin (Dioxin)) in breast tumour MCF-7 cells (see, e.g., Sutter et al., 1994). CYP1B1 is expressed in a variety of human tumours, and can be inducible by TCDD in numerous cell types including breast, liver, lung, and kidney (see, e.g., Murray et al., 1997). CYP1B1 is known to catalyse estradiol 4-hydroxylation metabolism. In untreated culture, the constitutive rate of estradiol E2 metabolism in MCF-7 cells is minimal. However, treatment with TCDD causes a marked increase in the rate of E2 metabolism (see, e.g., Spink et al., 1994). […] Therefore the cytotoxicity of compounds in non-induced MCF-7 cells correlates to the cytotoxicity of compounds against normal cells, whilst the cytotoxicity of compounds against TCDD-induced MCF-7 cells correlates to the cytotoxicity of compounds against real tumours that express CYP1B1.
(§2) The cytotoxicity of compounds in non-induced MCF-7 cells correlates to the cytotoxicity of compounds against normal cells, whilst the cytotoxicity of compounds against TCDD-induced MCF-7 cells correlates to the cytotoxicity of compounds against real tumours that express CYP1B1.
(§3) Cells were maintained in RPMI 1640 with Glutamax 1 (Life Technologies) with 10% (v/v) heat inactivated foetal calf serum (Hybrimax. Sigma), at 37° C., 5% CO2/95% air with 100% humidity and passaged using trypsin/EDTA. 1×10^3 cells were plated out in 100 μl medium per well of 96-well flat-bottomed plates (Fisher). After 4 hours to allow adherance, 100 μl of medium containing TCDD (British Greyhound Chromatography; 10 μM stock in DMSO (dimethylsulfoxide)) or medium with 0.2% (v/v) DMSO as control was added to each well to give a final concentration of 10 nM TCDD, 0.1% (v/v) DMSO, for 24 hours to allow maximal CYP expression. The medium was then carefully aspirated and 100 μl fresh medium added. Within 30 minutes test compound was added in quadruplicate in 100 μl medium (with or without inhibitors) at double the final concentration from 100 mM stock in DMSO to give a final concentration of not more than 0.1% (v/v) DMSO, or DMSO solvent alone at 0.1% (v/v) as control. The cells were then allowed to grow on for 96 hours to give 80–90% confluence in the control wells. 50 μl MTT (Thiazol blue, Sigma) at 2 mg/ml in Dulbecco's phosphate buffered saline-A, was then added to each well for 3 hours. All medium was aspirated, then the formazan product generated by viable cells was solubilized with 150 μl DMSO. Plates were vortexed and the absorbance at 540 nm determined using a plate reader. Results were expressed as the percentage of 100% (control) proliferation and the IC50 calculated using the line of best fit for a sigmoidal dose response curve with variable slope using Graphpad Prizm software. All determinations were carried out in at least triplicate.

[2] = system: TCDD-induced MCF-7 cells; assay: TCDD-induced MCF-7 cell line cytotoxicity assay, MTT; assay type: cell-based, human; conditions: for IC50: Homo sapiens, MCF7, MCF-7 cells induced with 10 nM TCDD for 24 hours, 96 hours, MTT; for Tumour Selectivity Differential Factor: MCF-7 IC50 versus TCDD-induced MCF-7 IC50 (Table 1); for more toxic to “tumour” cells than to “normal” cells: TCDD-induced MCF-7 versus MCF-7
Description: as §1, §2
as §3, with “triplicate. […]” for “triplicate.”

[3] = system: MDA-468 advanced breast cancer cell line; assay: MDA-468 tumour cell line cytotoxicity assay; assay type: cell-based, human; conditions: for IC50: Homo sapiens, without TCDD; for Tumour Selectivity Differential Factor: IC50 MCF-10A divided by IC50 MDA-468 (Table 2)
Experimental: (§4) Cells were maintained in RPMI 1640 with Glutamax 1 (Life Technologies) with 10% (v/v) heat inactivated foetal calf serum (Hybrimax. Sigma), at 37° C., 5% CO2/95% air with 100% humidity and passaged using trypsin/EDTA. 1×10^3 cells were plated out in 100 μl medium per well of 96-well flat-bottomed plates (Fisher). […] The medium was then carefully aspirated and 100 μl fresh medium added. […] 50 μl MTT (Thiazol blue, Sigma) at 2 mg/ml in Dulbecco's phosphate buffered saline-A, was then added to each well for 3 hours. All medium was aspirated, then the formazan product generated by viable cells was solubilized with 150 μl DMSO. Plates were vortexed and the absorbance at 540 nm determined using a plate reader. […] All determinations were carried out in at least triplicate.
(§5) This cell culture based assay is performed using the two cell lines MDA-468 and MCF-10A. The MDA468 cell line is an advanced breast cancer cell line, whilst the MCF-10A cell line is a normal breast cell line.
(§6) This assay was performed using the two cell lines MDA-468 and MCF-10A according to the procedure described above for the MCF-7 assay, but without the addition of TCDD.
(§7) The tumour selectivity differential factor (TSDF) is calculated by dividing the IC50 obtained from the MCF-10A data by the IC50 obtained from the MDA-468 data.

[4] = system: MCF-10A normal breast cell line; assay: MCF-10A normal cell line cytotoxicity assay; assay type: cell-based; conditions: Homo sapiens, without TCDD
Experimental: as §4, §5, §6, §7

[5] = prodrug / hydroxylated metabolite illustration, read-out: IC50 in breast cancer MCF-7 cells
[6] = non-induced MCF-7 cells, 96 hours, MTT, read-out: MCF-7 Cells IC50

| Compound | IC50 [2] | Tumour Selectivity Differential Factor [2] | IC50 [1, 6] | also measured |
| --- | --- | --- | --- | --- |
| COc1cc(OC)cc(C(=O)/C=C/c2ccc(OC)c(O)c2)c1 [(E)-1-(3-Hydroxy-4-methoxyphenyl)-3-(3,5-dimethoxyphenyl)prop-1-en-3-one, reference compound] |  |  |  | IC50 [1, 5]: 0.65 nM |
| CCCOc1ccc(/C=C/C(=O)c2ccc(OC)cc2OC)cc1 [DMU-408, (E)-1-(4-propoxyphenyl)-3-(2,4-dimethoxyphenyl)prop-1-en-3-one] | 1300 nM | 8 | 10000 nM |  |
| CCCOc1ccc(/C=C/C(=O)c2cccc(OC)c2)cc1 [DMU-417, (E)-1-(4-propoxyphenyl)-3-(3-methoxyphenyl)prop-1-en-3-one] | 10000 nM | 3 | 28000 nM |  |
| CCCOc1ccc(/C=C/C(=O)c2ccc(OC)c(OC)c2OC)cc1 [DMU-420, (E)-1-(4-propoxyphenyl)-3-(2,3,4-trimethoxyphenyl)prop-1-en-3-one] | 3700 nM | 5 | 20000 nM |  |
| CCCCOc1ccc(/C=C/C(=O)c2cc(OC)c(OC)c(OC)c2)cc1O [DMU-189, (E)-1-(3-hydroxy-4-butoxyphenyl)-3-(3,4,5-trimethoxyphenyl)prop-1-en-3-one] | 2500 nM | 3 | 8300 nM |  |
| CCCOc1ccc(/C=C/C(=O)c2cc(OC)c(OC)c(OC)c2)cc1O [DMU-188, (E)-1-(3-hydroxy4-propoxyphenyl)-3-(3,4,5-trimethoxyphenyl)prop-1-en-3-one] | 600 nM | 8 | 4500 nM |  |
| CCOc1ccc(/C=C/C(=O)c2cc(OC)c(OC)c(OC)c2)cc1 [DMU-190, (E)-1-(4-ethoxyphenyl)-3-(3,4,5-trimethoxyphenyl)prop-1-en-3-one] | 390 nM | 2 | 750 nM |  |
| COc1ccc(/C=C/C(=O)c2cc(OC)cc(OC)c2)cc1 [(E)-1-(4-methoxyphenyl)-3-(3,5-dimethoxyphenyl)prop-1-en-3-one, reference compound] |  |  |  | IC50 [1, 5]: 690 nM |
| COc1cc(OC)cc(C(=O)/C=C/c2ccc(OC(C)(C)C)cc2)c1 [DMU-402, (E)-1-(4-tertbutoxyphenyl)-3-(3,5-dimethoxyphenyl)prop-1-en-3-one, reference compound] | 6200 nM | 1 | 6200 nM |  |
| CCCOc1ccc(/C=C/C(=O)c2cc(OC)cc(OC)c2)cc1O [DMU-185, (E)-1-(3-hydroxy-4-propoxyphenyl)-3-(3,5-dimethoxyphenyl)prop-1-en-3-one] | 660 nM | 12 | 8000 nM |  |
| CN(Cc1cnc2nc(N)nc(N)c2n1)c1ccc(C(=O)N[C@@H](CCC(=O)O)C(=O)O)cc1 [Methotrexate, methotrexate] |  |  |  | IC50 [3]: 40 nM; Tumour Selectivity Differential Factor [3]: 1.5; IC50 [4]: 60 nM |
| CCOc1ccc(/C=C/C(=O)c2cc(OC)cc(OC)c2)cc1 [DMU-174, (E)-1-(4-ethoxyphenyl)-3-(3,5-dimethoxyphenyl)prop-1-en-3-one] | 600 nM | 3 | 2000 nM |  |
| CCCCOc1ccc(/C=C/C(=O)c2cc(OC)cc(OC)c2)cc1 [DMU-176, (E)-1-(4-butoxyphenyl)-3-(3,5-dimethoxyphenyl)prop-1-en-3-one] | 1100 nM | 18 | 20000 nM |  |
| COc1cc(OC)cc(C(=O)/C=C/c2ccc(OC(C)C)cc2)c1 [DMU-401, (E)-1-(4-isopropoxyphenyl)-3-(3,5-dimethoxyphenyl)prop-1-en-3-one] | 800 nM | 9 | 6800 nM |  |
| CCCCOc1ccc(/C=C/C(=O)c2cc(OC)cc(OC)c2)cc1O [DMU-186, (E)-1-(3-hydroxy-4-butoxyphenyl)-3-(3,5-dimethoxyphenyl)prop-1-en-3-one] | 650 nM | 46 | 30000 nM | more toxic to “tumour” cells than to “normal” cells [2]: 46 fold |
| CCCOc1ccc(/C=C/C(=O)c2cc(OC)c(OC)c(OC)c2)cc1 [DMU-191, (E)-1-(4-propoxyphenyl)-3-(3,4,5-trimethoxyphenyl)prop-1-en-3-one] | 420 nM | 24 | 10000 nM | more toxic to “tumour” cells than to “normal” cells [2]: 24 fold |
| CCCCOc1ccc(/C=C/C(=O)c2cc(OC)c(OC)c(OC)c2)cc1 [DMU-192, (E)-1-(4-butoxyphenyl)-3-(3,4,5-trimethoxyphenyl)prop-1-en-3-one] | 1600 nM | 12 | 20000 nM |  |
| CCCOc1ccc(/C=C(\C)C(=O)c2cc(OC)cc(OC)c2)cc1 [DMU-432, (E)-1-(4-propoxyphenyl)-2-methyl-3-(3,5-dimethoxyphenyl)prop-1-en-3-one] | 80 nM | 9 | 700 nM |  |
| COc1cccc2c1C(=O)c1c(O)c3c(c(O)c1C2=O)C[C@@](O)(C(=O)CO)C[C@@H]3O[C@H]1C[C@H](N)[C@H](O)[C@H](C)O1 [Doxorubicin, doxorubicin] |  |  |  | IC50 [3]: 3 nM; Tumour Selectivity Differential Factor [3]: 0.1; more toxic to normal cells than to cancer cells ([3]; MCF-10A versus MDA-468): 10 fold; IC50 [4]: 0.3 nM |
| CCCOc1ccc(/C=C/C(=O)c2cc(OC)ccc2OC)cc1 [DMU-424, (E)-1-(4-propoxyphenyl)-3-(2,5-dimethoxyphenyl)prop-1-en-3-one] | 2000 nM | 6 | 12000 nM |  |
